Experimental data: PMC6341082 (Translational Psychiatry, 2019)

Legend:
Adnp deficiency in mice = tested on: Adnp deficiency in mice; parameters: method as in PMID 26782054; conditions: cited from earlier work
Adnp+/- mice [1] = assay: Object recognition test; format: in vivo, mouse; conditions: male Adnp+/+ mice (Supplemental Fig. S2A, B)
Procedure: Experiments were performed as previously described[8],[30],[40]. Three–six-month-old male mice were used, and NAP-CB was administered once daily (0.5 µg/5 µl/mouse) for one month. The behavioral assays were then initiated together with a continuous drug application. For detailed description of the object recognition test and the social approach task, please see supplemental materials and methods. In the odor discrimination test, odors were presented on a suspended cotton swab to the test mouse placed into the clean cage with fresh shavings. Each mouse was tested during three consecutive 2-min periods for each odor, with 2-min intervals between presentations. The time that the mouse smelled the swab was recorded (beginning whenever the animal oriented its nostrils toward the cotton swab, within 2 cm or less)[8],[30]. […] Data are expressed as mean ± SEM.
Object recognition: The test included two consecutive days of habituation (5 min per day) and the experimental day which consisted of the three phases. […] The time spent sniffing/touching each object was measured. Mouse movement and exploratory behavior were tracked and recorded using the EthoVision XT video tracking system and software (Noldus Inc. Leesburg, VA). […]

Adnp+/- mice [2] = assay: Social approach task (social recognition and social memory); format: in vivo, mouse
Procedure: (§1) Experiments were performed as previously described[8],[30],[40]. Three–six-month-old male mice were used, and NAP-CB was administered once daily (0.5 µg/5 µl/mouse) for one month. The behavioral assays were then initiated together with a continuous drug application. For detailed description of the object recognition test and the social approach task, please see supplemental materials and methods. In the odor discrimination test, odors were presented on a suspended cotton swab to the test mouse placed into the clean cage with fresh shavings. Each mouse was tested during three consecutive 2-min periods for each odor, with 2-min intervals between presentations. The time that the mouse smelled the swab was recorded (beginning whenever the animal oriented its nostrils toward the cotton swab, within 2 cm or less)[8],[30]. The hanging wire test measuring the strength of the mouse paws by using the latency to fall off an inverted cage lid (placed 50 cm above the surface) onto a soft bedding (maximum time 90 sec), was performed as previously described[5],[40]. Data are expressed as mean ± SEM.
Social approach: A plexiglas box was divided into three adjacent chambers, each 20 cm (length) × 40.5 cm (width) × 22 cm (height), separated by two removable doors. Steel wire pencil cups (10.16 cm (diameter), 10.8 cm (height)), www.kitchen-plus.com, were used as both containment for the target mice and as inanimate objects (weights prevented the mice from overturning the cups). […] The next day, each subject mouse was tested in an experiment with three phases, each 10-min long (measured with a simple timer): I and II, the habituation phases (ensuring no bias), and III, the experimental phase. […] Mouse movement and exploratory behavior were tracked and recorded using the EthoVision XT video tracking system and software (Noldus Inc. Leesburg, VA). The discrimination capacity (social memory) was analyzed using the formula: D2 = (b-a)/(b+a), where ‘a’ designated the time of exploration of the familiar mouse and 'b' designated the time of exploration of the novel mouse.

Adnp+/- mice [3] = assay: Odor discrimination test; format: in vivo, mouse
Procedure: as §1, with “Three–six-month-old male mice were used, and NAP-CB was administered once daily (0.5 µg/5 µl/mouse) for one month.” left out

Adnp+/- mice [4] = assay: Hanging wire test; format: in vivo, mouse; conditions: significant vs vehicle
Procedure: as §1, with “Three–six-month-old male mice were used, and NAP-CB was administered once daily (0.5 µg/5 µl/mouse) for one month.” left out

[5] = tested on: hippocampus of Adnp+/- mice; assay: Diffusion tensor imaging (DTI) MRI of chronically treated brains; format: in vivo, mouse
Description: Seven–eight-month-old male mice underwent MRI on a 7.0 T/30 spectrometer (Bruker, Rheinstetten, Germany) using a volume coil for excitation and a rat quadrature coil for acquisition. The MRI protocol used here was the DTI.
DTI was obtained using a diffusion-weighted (DW) spin-echo echo-planar-imaging (EPI) pulse sequence with the following parameters: TR/TE = 4000/25 ms, Δ/δ = 10/4.5 ms, 4 EPI segments and 32 non-collinear gradient directions with a single b value (1000 sec/mm^2) and two images with b value of 0 sec/mm^2 (referred to as b0). Geometrical parameters were: 24 slices of 0.5 mm thickness, matrix size of 128 × 128 and FOV of […]). The imaging protocol was repeated three times for signal averaging and to compensate for acquisition where significant head motion was observed. Image analysis included DTI analysis of the DW-EPI images to produce the mean diffusivity (MD) and fractional anisotropy (FA) indexed maps following a two-way ANOVA with Tukey post-hoc test.

[6] = tested on: Slc17a7 gene encoding VGLUT1; assay: Gene expression analysis (quantitative RT-PCR); format: in vivo, mouse
Procedure: Hippocampal and cerebral cortical RNA of mouse that were 7.5-month-old were extracted using TRI Reagent® (T9424, Sigma-Aldrich, MO, USA). A volume of 1 μg RNA/sample was then subjected to reverse transcription (RT) using qScript cDNA Synthesis Kit (Quanta Biosciences, Gaithersburg, MD, USA). Further Real-time PCR analysis was performed using PerfeCta^TM SYBR® Green FastMix^TM, Low ROX^TM (Cat. No. 95074–012, Quanta Biosciences, Gaithersburg, MD, USA) and the QuantStudio 12 K Flex Real-Time PCR System (Thermo Fisher Scientific, Waltham, MA, USA). RNA expression levels were determined using specific mouse primers: Slc17a7 gene encoding VGLUT1, sense 5′-[…]-3′, anti-sense 5′-[…]-3′. Hypoxanthine-guanine phosphoribosyltransferase (Hprt) was selected as a stable reference gene with appropriate primers for mouse, sense 5′-[…]-3′, anti-sense 5′-[…]-3′. Results are presented as 2^-ΔCT[42].

VGLUT1 = assay: Immunohistochemistry; format: in vivo, mouse; conditions: male Adnp+/- mice
Procedure: Immunohistochemistry was carried out as previously described. Briefly, paraffin sections were deparaffinized, rehydrated in graded alcohols, and antigen retrieval was performed with citrate buffer pH 6. Endogenous peroxidase was blocked with 3% H2O2 in methanol and was followed by incubation in the appropriate blocking buffer for 30 min. Sections were incubated overnight at 4 °C with the primary antibodies against VGLUT1 (Santa Cruz Biotechnology, sc-13320). The secondary antibody used was Rabbit Anti-Goat IgG (EMD Millipore, AP106B). Immunoreactions were visualized with the aim of Avidin-Peroxidase (Sigma- Aldrich Chemical), and 3,3′-Diaminobenzidine (DAB, brown color, Sigma-Aldrich Chemical) was utilized as chromogen. Sections were then counterstained with hematoxylin (light blue color).
Sections were further examined under optical microscope Zeiss Axioplan-2 with the aid of a CCD camera (Nikon DS-5M) for observations of the slides. In average, 25 optical fields were examined from each group under a magnification of ×40. Measurements were performed with Image J software (1.43 u) in the areas of the hippocampus and the cortex. The results were expressed as area/mm^2 (as previously described[14]), representing the area of DAB positive signal in each photo divided by the total area of the same photo. An additional parameter measured was the Integrated Density, calculating and displaying […]: the product of Area and Mean Gray Value.

patients = conditions: cited from earlier work
Description: Together, these studies attest to preclinical efficacy, holding a promise for clinical effectiveness. […] Nevertheless, in a study performed in severely affected individuals suffering from progressive supranuclear palsy (PSP), belonging to the family of rapidly progressing frontotemporal neurodegener ...

**Q.** With SKIP as the substance, how does the impaired axonal transport (Adnp deficiency in mice) read?
**A.** ameliorated

**Q.** With NAPVSIPQ as the substance, how does the “object recognition, relative discrimination, short and long retention choice phases, NAP- vs CB-treated” value (Adnp+/- mice [1]) read?
**A.** no significant differences

**Q.** What about the “social recognition, sniffing time mouse vs cup” value (Adnp+/- mice [2]; NAP-treated Adnp+/- male mice, p < 0.001 vs. cup) of the same substance?
**A.** significant differences between sniffing time of the cup (c) and mouse (M)

**Q.** And the “social memory (D2, novel vs familiar mouse)” value (Adnp+/- mice [2]; female Adnp+/- mice, n = 3-4 per group, p < 0.001 vs vehicle (Supplemental Fig. S2D))?
**A.** improved social memory

**Q.** And the “social recognition, preference mouse vs object” value (Adnp+/- mice [2]; females (Supplemental Fig. S2C), n = 3-4 per group)?
**A.** significant preference to mice rather than objects

**Q.** And the “total odor sniffing time (AUC)” value (Adnp+/- mice [3]; female Adnp+/- mice, NAP vs CB vehicle, p < 0.05)?
**A.** significantly reduced

**Q.** What about the “odor discrimination ability (novel vs. familiar odor), differences between experimental groups” value (Adnp+/- mice [3]; females (Supplemental Fig. S2E)) of the same substance?
**A.** no significant differences

**Q.** What about the “total time spent with the different odors (AUC)” value (Adnp+/- mice [3]; male Adnp+/- mice, NAP vs CB vehicle, p < 0.05) of the same substance?
**A.** significantly increased

**Q.** What about the “odor discrimination ability (novel vs. familiar odor), differences between experimental groups” value (Adnp+/- mice [3]; males) of the same substance?
**A.** no significant differences were observed between experimental groups

**Q.** What about the “hanging wire test, latency to fall” value (Adnp+/- mice [4]; female Adnp+/- mice (Supplemental Fig. S2F)) of the same substance?
**A.** ameliorating this behavior

**Q.** And the “hanging wire test, latency to fall” value (Adnp+/- mice [4]; male Adnp+/- mice, maximum time 90 sec)?
**A.** amelioration

**Q.** And the “hippocampal mean diffusivity (MD), NAP- vs CB-treated” value ([5]; male Adnp+/+ mice (Supplemental Fig. S3A))?
**A.** no significant differences in MD

**Q.** And the “hippocampal fractional anisotropy (FA)” value ([5]; male Adnp+/+ mice (Supplemental Fig. S3B))?
**A.** not affected

**Q.** What about the “hippocampal mean diffusivity (MD), effect on increase in Adnp+/-” value ([5]; male Adnp+/- mice, 7-8 months old, -1.84 mm from Bregma, n = 4-6 per group) of the same substance?
**A.** although insignificant, was slightly reduced

**Q.** What about the “cerebral cortex VGLUT1 expression (reduced in Adnp+/-)” value ([6]; female Adnp+/- mice, n = 3-4 per group (Supplemental Fig. S4B)) of the same substance?
**A.** no effect

**Q.** What about the “hippocampal VGLUT1 gene expression” value ([6]; females, n = 3-4 per group (Supplemental Fig. S4A)) of the same substance?
**A.** not affected

**Q.** And the “VGLUT1 transcript, cerebral cortex” value ([6]; male Adnp+/- mice, 2^-ΔCT normalized to Hprt, n = 4 per group)?
**A.** small, albeit significant decrease

**Q.** And the “Slc17a7 (VGLUT1) gene expression, hippocampus (decrease in Adnp+/-)” value ([6]; male Adnp+/- mice, 7.5-month-old, 2^-ΔCT normalized to Hprt, n = 4 per group)?
**A.** completely reversed

**Q.** And the “VGLUT1 protein, intensity (Integrated Density), cortex” value (VGLUT1)?
**A.** trend of improvement

**Q.** And the “VGLUT1 protein, area counting (area/mm^2), hippocampus” value (VGLUT1; five animals per group, technical replicates, p < 0.001 vs CB)?
**A.** full protection

**Q.** And the “VGLUT1 protein, area counting (area/mm^2), cerebral cortex” value (VGLUT1; five animals per group, technical replicates, p < 0.05 vs CB)?
**A.** full protection

**Q.** What about the “VGLUT1 protein, intensity (Integrated Density), hippocampus” value (VGLUT1; p < 0.001 vs CB) of the same substance?
**A.** significant

**Q.** And the cognitive scores (patients; amnestic mild cognitive impairment patients)?
**A.** increase in cognitive scores

**Q.** And the “functional activities of daily living” value (patients; schizophrenia patients)?
**A.** protection of functional activities of daily living

**Q.** What about the “efficacy in progressive supranuclear palsy (PSP)” value (patients; severely affected individuals suffering from PSP) of the same substance?
**A.** did not show efficacy
